In ChEMBL document CHEMBL1143970, “Structure-activity relationships and CoMFA of N-3 substituted phenoxypropyl piperidine benzimidazol-2-one analogues as NOP receptor agonists with analgesic properties” (Bioorg Med Chem, 2008):
In brackets after ≈: the same amount, converted by molar mass.

Key:
Rattus norvegicus [1] = experiment: Effect on mechanically-induced allodynia in iv dosed Wistar rat after 2 hrs by Brennan test; type: functional
Rattus norvegicus [2] = experiment: Reversal of mechanically-induced allodynia in Wistar rat at 30 umol/kg, iv after 2 hrs by Brennan test; type: functional
[3] = Solubility of the compound; type: physicochemical

Row | SMILES | ED50 (Rattus norvegicus [1]) | Activity (Rattus norvegicus [2]) | solubility [3]
1 | COc1ccc(C)c(OC(CCN2CCC(n3c(=O)n(Cc4ncn[nH]4)c4ccccc43)CC2)C(C)C)c1 (centres undefined) | 12.1 µmol/kg | 100% | –
2 | COc1ccc(C)c(OC(CCN2CCC(n3c(=O)n(Cc4c[nH]cn4)c4ccccc43)CC2)C(C)C)c1 (centres undefined) | – | – | 200 µg/mL (≈ 386 µM)
3 | COc1ccc(C)c(OC(CCN2CCC(n3c(=O)n(Cc4ncn[nH]4)c4ccccc43)CC2)C(C)C)c1.Cl (single isomer, unassigned; (+)) | – | – | 4 µg/mL
